What follows are compounds tested against T1, human V1a receptor (Homo sapiens, UniProt P37288) (assay: V1a receptor binding study (3H-Vasopressin SPA, HEK293 membranes)). Conditions: membranes of HEK293 cells transiently transfected with human V1a receptor, Ki by Cheng-Prussoff equation, read-out: pKi hV1a (converted).
T1 construct: expressed in transfected cells; host or cells: HEK293 cells, transiently transfected; membranes prepared
Protocol: The human V1a receptor was cloned by RT-PCR from total human liver RNA. The coding sequence was subcloned in an expression vector after sequencing to confirm the identity of the amplified sequence. […] Cell membranes were prepared from HEK293 cells transiently transfected with the expression vector and grown in 20 liter fermenters with the following protocol.
50 g of cells were resuspended in 30 ml freshly prepared ice cold Lysis buffer (50 mM HEPES, 1 mM EDTA, 10 mM MgCl2 adjusted to pH=7.4+complete cocktail of protease inhibitor (Roche Diagnostics)); homogenized with Polytron for 1 min; and sonicated on ice for 2×2 minutes at 80% intensity (Vibracell sonicator). The preparation was centrifuged 20 min at 500 g at 4° C., the pellet was discarded and the supernatant centrifuged 1 hour at 43,000 g at 4° C. (19,000 rpm). The pellet was resuspended in 12.5 ml Lysis buffer+12.5 ml Sucrose 20% and homogenized using a Polytron for 1-2 min. The protein concentration was determined by the Bradford method and aliquots were stored at −80° C. until use. For binding studies 60 mg Yttrium silicate SPA beads (Amersham) were mixed with an aliquot of membrane in binding buffer (50 mM Tris, 120 mM NaCl, 5 mM KCl, 2 mM CaCl2, 10 mM MgCl2) for 15 minutes with mixing. 50 ul of bead/membrane mixture was then added to each well of a 96 well plate, followed by 50 ul of 4 nM 3H-Vasopressin (American Radiolabeled Chemicals). For total binding measurement 100 ul of binding buffer were added to the respective wells, for non-specific binding 100 ul of 8.4 mM cold vasopressin and for compound testing 100 ul of a serial dilution of each compound in 2% DMSO. The plate was incubated 1 h at room temperature, centrifuged 1 min at 1000 g and counted on a Packard Top-Count. Non-specific binding counts were subtracted from each well and data was normalized to the maximum specific binding set at 100%. To calculate an IC 50 the curve was fitted using a non-linear regression model (XLfit), and the Ki was calculated using the Cheng-Prussoff equation.

T1 sequence (P37288 whole entry): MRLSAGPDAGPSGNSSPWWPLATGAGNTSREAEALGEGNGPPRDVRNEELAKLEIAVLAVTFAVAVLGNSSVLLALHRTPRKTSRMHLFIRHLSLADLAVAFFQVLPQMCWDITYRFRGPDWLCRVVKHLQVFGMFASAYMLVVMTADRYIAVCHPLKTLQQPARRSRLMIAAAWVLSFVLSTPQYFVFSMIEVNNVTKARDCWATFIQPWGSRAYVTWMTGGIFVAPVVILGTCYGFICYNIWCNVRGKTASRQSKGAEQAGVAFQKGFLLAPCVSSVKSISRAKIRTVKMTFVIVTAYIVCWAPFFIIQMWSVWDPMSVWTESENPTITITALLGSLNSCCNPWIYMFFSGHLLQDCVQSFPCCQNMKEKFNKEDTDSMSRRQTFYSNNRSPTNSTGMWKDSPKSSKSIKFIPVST

Structure (SMILES)	Ki
CC1=C(C(=O)N2CC[C@@]3(OC(=O)c4ccccc43)[C@@H](C)C2)Cc2ccccc21 (racemic) [Example 10, (1RS,3′SR)-3′-Methyl-1′-[(3-methyl-1H-inden-2-yl)carbonyl]-3H-spiro[2-benzofuran-1,4′-piperidin]-3-one]	63.1 nM
O=C(c1cc2ccccc2s1)N1CCC2(CC1)OCc1ccccc12 [Example 1, 1′-(1-Benzothien-2-ylcarbonyl)-3H-spiro[2-benzofuran-1,4′-piperidine]]	25.1 nM
COc1cccc2cc(C(=O)N3CCC4(CC3)OCc3ccccc34)sc12 [Example 2, 1′-[(7-Methoxy-1-benzothien-2-yl)carbonyl]-3H-spiro[2-benzofuran-1,4′-piperidine]]	50.1 nM
COc1ccc2c(c1)CC(C(=O)N1CCC3(CC1)OCc1ccccc13)S2 (stereo not shown) [Example 4, 1′-[(5-Methoxy-2,3-dihydro-1-benzothien-2-yl)carbonyl]-3H-spiro[2-benzofuran-1,4′-piperidine]]	63.1 nM
CCc1cc(Br)cc2cc(C(=O)N3CCC4(CC3)OCc3ccccc34)oc12 [Example 6, 1′-[(5-Bromo-7-ethyl-1-benzofuran-2-yl)carbonyl]-3H-spiro[2-benzofuran-1,4′-piperidine]]	50.1 nM
O=C(c1nc2cc(Cl)ccc2[nH]1)N1CCC2(CC1)OCc1ccccc12 [Example 9, 1′-[(5-Chloro-1H-benzimidazol-2-yl)carbonyl]-3H-spiro[2-benzofuran-1,4′-piperidine]]	31.6 nM
COc1ccc2c(c1)C1(CCN(C(=O)c3cc4cccnc4[nH]3)CC1)OC2=O [Example 14, 6-Methoxy-1′-(1H-pyrrolo[2,3-b]pyridin-2-ylcarbonyl)-3H-spiro[2-benzofuran-1,4′-piperidin]-3-one]	200 nM

Source: US7495008B2, “Spiro-piperidine derivatives” (Hoffmann-La Roche Inc., priority 2006, dated 2009)
